Broadly, the EC50 is the concentration at which the effect is half-maximal.

SMILES strings stand for the structures.

The values that follow come from BindingDB's records for patent US11912686 (Gilead Sciences, 2024).

Sequence of Lysophosphatidic acid receptor 1 (Q92633 whole entry): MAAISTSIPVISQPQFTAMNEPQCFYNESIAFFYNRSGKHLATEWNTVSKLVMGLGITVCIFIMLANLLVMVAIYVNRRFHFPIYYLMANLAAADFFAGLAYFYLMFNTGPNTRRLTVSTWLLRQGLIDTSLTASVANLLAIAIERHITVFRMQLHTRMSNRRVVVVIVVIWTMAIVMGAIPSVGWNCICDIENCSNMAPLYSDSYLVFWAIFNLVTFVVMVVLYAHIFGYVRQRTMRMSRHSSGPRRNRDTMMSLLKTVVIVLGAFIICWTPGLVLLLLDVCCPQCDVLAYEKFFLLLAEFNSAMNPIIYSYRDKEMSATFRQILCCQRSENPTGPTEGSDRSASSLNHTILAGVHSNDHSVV

The assay deals with Lysophosphatidic acid receptor 1 (Homo sapiens, UniProt Q92633). The assay can be described thus: Calcium Mobilization Assay. The procedure:
For agonist dose curves, cells were removed from the incubator 2 hours after dye loading and transferred to the FLIPR Tetra instrument (Molecular Devices, San Jose, CA). […] After dye loading, cells were removed from the incubator and 0.3 μL of 200× antagonist was added. Cells were incubated for 60 minutes at 37° C. Antagonist activity was measured on a FLIPR Tetra. Calcium mobilization was monitored for 3.5 minutes and 10 μL 6× EC80 LPA in HBSS, 20 mM HEPES, and 0.1% BSA was added to the cells 5 seconds into the assay. Signal amplitude (Maximum minus minimum) values were plotted against log10 of antagonist concentration using Dose Response T
Consider `C[C@@H](OC(=O)Nc1c(-c2ccc(NC(=O)[C@H]3C[C@@](F)(C#N)C3)cn2)nnn1C)c1cccnc1Cl` [US11912686, Compound 185], for which the concentration for a half-maximal effect (EC50) came out at 1700 nM. Turning to `CCNC(=O)Nc1ccc(-c2nnn(C)c2NC(=O)O[C@H](C)c2cccnc2Cl)cn1` [US11912686, Compound 4], the concentration giving a half-maximal response (EC50) was at least 10000 nM. On to `C[C@@H](OC(=O)Nc1c(-c2ccc(NC(=O)N3CCOCC3)cn2)nnn1C)c1cccnc1Cl` [US11912686, Compound 189], for which the concentration giving a half-maximal response (EC50) came out at 989 nM.
